Experiment [1] has as its target T1, CDK7/Cyclin H/MAT-1 complex (Homo sapiens, UniProt P50613).
T1 construct: Human CDK7 (amino acids 1-346); His6 (N); TEV protease cleavage site (N); made in house; host or cells: baculovirus-SF9 insect cells
As to the kind of experiment: Absorbance kinetic assay (20 nM CDK7/Cyclin H/MAT-1 complex). The following applies: for IC50: read-out: CDK7 (20 nM) pIC50 (converted). It is filed as biochemical. The protocol: Human CDK7 (amino acids 1-346) containing an N-terminal His6-tag followed by a tobacco etch virus (TEV) protease cleavage site, human MAT1 (amino acids 1-309) and human cyclin H (amino acids 1-323) were co-expressed in the baculovirus-SF9 insect cell expression system to generate a trimeric complex. Cell pellets were collected 72 h post-infection and were resuspended by Dounce homogenization in 20 mM Hepes-NaOH (pH 8.0), 300 mM NaCl, 10% glycerol, 2 mM dithiothreitol DTT), and 20 mM Imidazole supplemented with cOmplete™ Protease Inhibitor Cocktail (Roche) and 25 U/mL Benzonase® Nuclease HC according to the manufacturer's instructions. Cells were lysed by passing through a Microfluidics M110Y Microfluidizer 3 times at 600 kPa followed by centrifugation at 38,000×g at 4° C. for 1 hour. The supernatant was loaded onto a pre-equilibrated HisTrap HP column and eluted in 20 mM Hepes-NaOH (pH 8.0), 50 mM NaCl, 10% glycerol, 2 mM DTT, and 400 mM Imidazole. The eluate was further purified by gel filtration on a Superdex S200 16/60 column and eluted with 20 mM Hepes-NaOH (pH 7.5), 50 mM NaCl, 10% Glycerol, 2 mM DTT. Fractions containing a trimeric complex of CDK7, cyclin H, and MAT1 in a 1:1:1 ratio were pooled and concentrated to 3 mg/mL in a 10 kDa MWCO concentrator, and diluted to a final concentration of 1.6 mg/mL in 11.1 mM Hepes-NaOH (pH 8.0), 27.8 mM NaCl, 1.1 mM DTT and 50% glycerol. […]
Absorbance Kinetic Assay (20 nM CDK7/Cyclin H/MAT-1 Complex)
CDK7 complex catalyzes the ATP-dependent phosphorylation of a peptide substrate CDK7/9-tide that is derived from RNA Pol II to produce phosphorylated peptide and ADP. The kinase reaction product ADP was converted to lactate and NAD^+ in the presence of phosphoenol pyruvate (PEP), NADH and coupling enzymes lactate dehydrogenase (LDH) and pyruvate kinase (PK). CDK7 complex catalytic activity was measured by following the absorbance intensity continuously at 340 nm that corresponds with the depletion of NADH.
Absorbance at 340 nm was followed kinetically at an interval of 2 minutes for 8 hours.
The assay was carried out with 100 μl reaction volume per well in a 384-well plate that was pre-spotted nanoliter volume of compounds by LabCyte Echo 555. Compound dilution plates were made by 2-fold (could vary upon necessity) dilution in DMSO for 11 concentrations plus a DMSO control of uninhibited reaction. 2× substrate and coupling reagent mixture was added to the assay plate followed by an addition of an equal volume of 40 nM CDK7/Cyclin H/MAT-1 complex. After mixing, assay plates were spun at 2000 rpm for 3 minutes and then transferred to the plate reader for data collection.
For reversible inhibitors, the absorbance reaction progress curves were linear. The steady-state rate was derived from the slope of the linear curves. The following equation is applied to determine percent inhibition.
[formula] • νo=max rate (uninhibited rate) • νi=inhibited rate
The IC50 value is calculated by the following equation:
[formula] where νo is the rate in the absence of inhibitor, νmin is the rate at highest inhibitor concentration, and h is the Hill coefficient. Flint Assay (5 nM CDK7/Cyclin H/MAT-1 Complex)

Experiment [2] has as its system RNA polymerase II Serine 5 phosphorylation (Rpb1 CTD), downstream substrate of CDK7. As to the kind of experiment: Imaging-based cellular RNA PolII Ser5 phosphorylation assay in A549 cells. It is filed as cell-based, human. The conditions noted are these: Homo sapiens, A549, 3 h, challenged with compound for 3 hours, read-out: pRNA polII Ser5 (A549) pIC50 (converted). An excerpt:
Dosing curves were fitted using the following equation to obtain IC50: Y=Bottom+(Top−Bottom)/(1+10^((log IC50−X)*Hill slope)) where X=log10 of the compound concentration; top and bottom can be defined by PC and NC respectively. Imaging-Based Cellular RNA PolII Ser5 Phosphorylation Assay
To evaluate inhibition of CDK7 kinase activity, a 384-well automated imaging assay was used. This assay detects Serine 5 phosphorylation on a unique heptapeptide sequence in the C-terminal domain of Rpb1 subunit of RNA polymerase II, the downstream substrate of CDK7. This heptapeptide sequence is repeated up to 52 times in the CTD of Rpb1.
A549 adenocarcinoma human alveolar basal epithelial cells (ATCC, CCL-185), rabbit Phospho-Rpb1 CTD (Ser5) antibody (D9N51 (Cell Signaling Technology)), DMEM (Sigma), Fetal Bovine Serum (Biowest), L-glutamine (Sigma), Penicillin/Streptomycin (Life Technologies), Sodium Pyruvate (Sigma), Hepes (Sigma), poly-D-lysine coated μclear 384 black plates (Greiner), formaldehyde (PolySciences), D-PBS (Sigma), Methanol (Sigma), Alexa Fluor 488 goat anti rabbit IgG secondary antibody (Life Technologies), HCS CellMask™ Deep Red stain (Life Technologies), Hoechst 33258 (Invitrogen).
RNA Polymerase II Serine 5 phosphorylation was detected using a specific rabbit Phospho-Rpb1 CTD (Ser5) antibody. A549 adenocarcinoma human alveolar basal epithelial cells were seeded in 20 μl medium (DMEM supplemented with 1% Fetal Bovine Serum (heat inactivated 30′ 56° C.), 2 mM L-glutamine, 50 U/ml penicillin 50 μg/ml streptomycin, 1 mM sodium pyruvate and 50 mM hepes) at 1000 cells/well and cultured in poly-D-lysine coated μclear 384 black plates for 20 hours at 37° C. and 5% CO2.
After incubation cells were challenged with compound for 3 hours at 37° C. and 5% CO2. DMSO was used as high control and as low control 10 μM of LDC4297 reference compound was used. 40 nl of test compounds and controls were spotted in cell plates using Echo Liquid Handler (Echo 550, Labcyte). Incubation was followed by 20 minutes fixation with 20 μl 10% formaldehyde at room temperature. Medium/formaldehyde solution was removed, plates were washed 3 times with 30 μl D-PBS (w/o Ca^2+ and Ma^2+) and permeabilization was done by adding 20 μl ice cold methanol for 20 minutes. Cells were washed again 3 times with 30 μl D-PBS and 20 μl blocking buffer (25 ml fetal bovine serum in 500 ml D-PBS) was added for 1 hour.
After removing blocking buffer 20 μl 1/1000 primary antibody rabbit. Phospho-Rpb1 CTD (Ser5) antibody was added which binds to the phosphorylated Serine5 of the heptapeptide sequences in the CTD of Rpb1. Primary antibody was removed, and plates were washed 3 times with 30 μl D-PBS followed by addition of 20 μl 1/2000 Alexa Fluor 488 goat anti rabbit IgG secondary antibody for final detection of Phospho-Rpb1 CTD (Ser5) together with 1/5000 HCS CellMask™ Deep Red stain for membrane staining and 1/5000 Hoechst 33258 for nucleus staining. Last, plates were washed 2 times with 30 μl D-PBS and wells were filled with 40 μL D-PBS, plates were sealed (Thermowell sealing tape) and stored at 4° C. until reading. Plates were read with Opera Phenix (Perkin Elmer) with 10× air objective. Data were calculated and analyzed in Phaedra.
IC50 values were calculated using the following formula:
Average value of all HC's and all LC's are used for normalizations. % Effect=100−(sample−LC)/(HC−LC)×100% Control=(sample/HC)×100
A best-fit curve is fitted by a minimum sum of squares method to the plot of % Control vs. compound concentration. From this an IC50 value can be obtained. An estimate of the slope of the plot in terms of the Hill coefficient is also obtained.

Results on 22 compounds are retold here after US12679839B2, “Cyclin-dependent kinase 7 (CDK7) non-covalent inhibitors” (JANSSEN PHARMACEUTICA NV, priority 2020, dated 2026).

T1 sequence (P50613 whole entry, the tested form may be a part): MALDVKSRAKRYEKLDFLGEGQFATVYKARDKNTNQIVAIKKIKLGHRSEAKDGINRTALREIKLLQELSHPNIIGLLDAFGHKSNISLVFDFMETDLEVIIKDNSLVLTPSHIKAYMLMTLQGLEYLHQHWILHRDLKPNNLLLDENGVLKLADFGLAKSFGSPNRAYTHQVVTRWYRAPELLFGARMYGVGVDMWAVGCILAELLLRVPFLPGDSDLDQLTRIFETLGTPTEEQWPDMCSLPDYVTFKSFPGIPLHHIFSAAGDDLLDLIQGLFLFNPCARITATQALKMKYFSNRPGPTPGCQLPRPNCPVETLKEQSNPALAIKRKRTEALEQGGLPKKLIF
T1 sequence (P51946 whole entry partner, the tested form may be a part): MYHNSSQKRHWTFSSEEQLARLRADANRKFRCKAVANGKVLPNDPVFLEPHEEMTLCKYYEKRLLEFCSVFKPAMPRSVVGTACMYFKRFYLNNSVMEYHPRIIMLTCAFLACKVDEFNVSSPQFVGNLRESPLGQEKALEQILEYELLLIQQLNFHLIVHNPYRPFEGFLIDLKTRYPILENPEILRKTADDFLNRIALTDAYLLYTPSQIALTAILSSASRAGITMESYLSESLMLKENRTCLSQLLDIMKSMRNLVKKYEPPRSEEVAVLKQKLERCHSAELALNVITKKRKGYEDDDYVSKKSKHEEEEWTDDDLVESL
T1 sequence (P51948 whole entry partner, the tested form may be a part): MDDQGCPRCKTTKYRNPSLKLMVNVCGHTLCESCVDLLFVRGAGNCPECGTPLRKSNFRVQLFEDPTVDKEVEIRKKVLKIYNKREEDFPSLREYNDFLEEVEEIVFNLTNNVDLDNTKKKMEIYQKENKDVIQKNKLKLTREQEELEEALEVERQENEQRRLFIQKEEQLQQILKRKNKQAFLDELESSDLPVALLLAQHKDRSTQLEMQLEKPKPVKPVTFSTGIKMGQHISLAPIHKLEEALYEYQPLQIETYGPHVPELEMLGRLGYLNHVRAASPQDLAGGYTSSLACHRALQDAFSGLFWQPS

Take `CO[C@H]1CC[C@H](Nc2ncc3c(n2)CN(C(=O)C2CCN(C)CC2c2ccnc(C)c2)[C@H](C)C3)CC1` (some centres unmarked) [Compound 104]: the IC50 in experiment [1] is 12.9 nM; in experiment [2], 1230 nM.
The matching figures for `C[C@@H]1Cc2cnc(NCc3ccn(C)n3)nc2[C@@H](C)N1C(=O)[C@H]1CCN(C)C[C@@H]1c1ccccc1` (relative stereo) [Compound 197]: 776 nM and 2820 nM.
Turning to `CC(C)N1CC[C@@H](C(=O)N2Cc3nc(NC4CCOCC4)ncc3C[C@H]2C)[C@H](c2ccc(Cl)c(F)c2)C1` (single isomer, unassigned) [Compound 165], the “CDK7 (20 nM) pIC50” value in experiment [1] is 6.10. Besides, the IC50 in experiment [2] is 3240 nM.
For `C[C@@H]1Cc2cnc(N[C@H](C)c3ccccn3)nc2CN1C(=O)[C@H]1CCN(C)C[C@@H]1c1ccccc1` [Compound 21], the “CDK7 (20 nM) pIC50” value in experiment [1] came out at 7.97. The IC50 in experiment [2] is 302 nM.
The matching figures for `C[C@@H]1Cc2cnc(NC3CCOCC3)nc2CN1C(=O)[C@@H]1CCN(C)C[C@H]1C(F)(F)F` [Compound 140a]: 5.89 and above 10000 nM.
The matching figures for `C[C@@H]1Cc2cnc(NC3CCOCC3)nc2CN1C(=O)[C@H]1CCN(C2CC2)C[C@@H]1c1ccccc1` (single isomer, unassigned) [Compound 161]: 6.74 and above 10000 nM.
Take `C[C@@H]1Cc2cnc(NC[C@H]3CCCO3)nc2CN1C(=O)[C@H]1CCN(C)C[C@@H]1c1ccccc1` [Compound 68]: the IC50 in experiment [1] is 14.5 nM; in experiment [2], 2400 nM.
Turning to `Cc1cccc([C@@H]2CN(C)CC[C@H]2C(=O)N2Cc3nc(Nc4cnn(C)c4)ncc3C[C@H]2C)c1` (relative stereo) [Compound 125], the results for the IC50 in experiment [1] and in experiment [2] were 339 nM and 794 nM, respectively.
The matching figures for `CC[C@H]1Cc2cnc(NC3CCOCC3)nc2CN1C(=O)[C@H]1CCN(C)C[C@@H]1c1ccccc1` (relative stereo) [Compound 186]: above 10000 nM and above 10000 nM.
Regarding `C[C@@H]1Cc2cnc(NC3CCOCC3)nc2CN1C(=O)[C@H]1CCN(C)C[C@@H]1c1cccc(Cl)c1` (relative stereo) [Compound 119], the IC50 in experiment [1] is 72.4 nM; in experiment [2], around 39.8 nM.
As for `CO[C@H]1CC[C@@H](Nc2ncc3c(n2)CN(C(=O)[C@H]2CCN(C)C[C@@H]2c2ccccc2)[C@H](C)C3)CC1` [Compound 38], the “CDK7 (20 nM) pIC50” value in experiment [1] is on record as 7.46. Further, in experiment [2], the IC50 was 1380 nM.
Consider `CO[C@H]1CC[C@H](Nc2ncc3c(n2)CN(C(=O)[C@@H]2CCN(C)C[C@H]2c2ccc(C)nc2)[C@H](C)C3)CC1` (relative stereo) [Compound 109], for which the IC50 in experiment [1] and in experiment [2] was above 10000 nM in each case.
With `C[C@@H]1Cc2cnc(NC3CCOCC3)nc2[C@@H](C)N1C(=O)[C@H]1CCN(C)C[C@@H]1c1ccccc1` (single isomer, unassigned) [Compound 195a], the IC50 in experiment [1] is 4680 nM; in experiment [2], above 10000 nM.
In the case of `C[C@@H]1Cc2cnc(NCC3CCOC3)nc2CN1C(=O)[C@H]1CCN(C)C[C@@H]1c1ccccc1` (some centres unmarked) [Compound 26], the “CDK7 (20 nM) pIC50” value in experiment [1] is 7.85. For the same compound, the IC50 in experiment [2] is 302 nM.
For `C[C@@H]1Cc2cnc(NC3CCOCC3)nc2CN1C(=O)[C@H]1CN(C)C[C@@H]1c1ccccc1` (relative stereo) [Compound 169a], the IC50 was 468 nM in experiment [1] and above 10000 nM in experiment [2].
Turning to `C[C@@H]1Cc2cnc(NC3CCN(C4COC4)CC3)nc2CN1C(=O)[C@H]1CCN(C)C[C@@H]1c1ccccc1` [Compound 25], in experiment [1], the “CDK7 (20 nM) pIC50” value is 7.46. In addition, the IC50 in experiment [2] was 776 nM.
As for `CC(C)N1CC[C@H](C(=O)N2Cc3nc(NC4CCOCC4)ncc3C[C@H]2C)[C@@H](c2cccc(F)c2)C1` (single isomer, unassigned) [Compound 163], the “CDK7 (20 nM) pIC50” value in experiment [1] is 6.83. In addition, in experiment [2], the IC50 is 162 nM.
The matching figures for `CC(C)n1cc(CNc2ncc3c(n2)CN(C(=O)[C@H]2CCN(C)C[C@@H]2c2ccccc2)[C@H](C)C3)cn1` [Compound 30]: 7.03 and 3890 nM.
`C[C@@H]1c2nc(NC3CCOCC3)ncc2CCN1C(=O)[C@H]1CCN(C)C[C@@H]1c1ccccc1` (relative stereo) [Compound 183]: the IC50 in experiment [1] and in experiment [2] was above 10000 nM throughout.
In the case of `C[C@@H]1Cc2cnc(NC3CCN(C(=O)CC4CC4)CC3)nc2CN1C(=O)[C@H]1CCN(C)C[C@@H]1c1ccccc1` [Compound 31], the “CDK7 (20 nM) pIC50” value in experiment [1] worked out at 7.81. Moreover, the IC50 in experiment [2] is around 69.2 nM.
On to `C[C@@H]1Cc2cnc(NC3CCC(F)(F)CC3)nc2CN1C(=O)[C@H]1CCN(C)C[C@@H]1c1ccccc1` [Compound 64], for which the “CDK7 (20 nM) pIC50” value in experiment [1] is reported as above 8.01. Besides, in experiment [2], the IC50 was 141 nM.
The matching figures for `CN1CCN(C(=O)N2Cc3nc(NC4CCOCC4)ncc3CC2(C)C)[C@@H](c2ccccc2)C1` [Compound 205]: 7.89 and 513 nM.
